Assays:
TrkB = target: T1, TrkB (Rattus norvegicus, UniProt Q63604); assay: biochemical; format: binding
T1 construct: expressed in transfected cells; host or cells: HEK293T

[1] = system: dendritic arbor complexity of neuronal cultures; assay: Dendritogenesis (Sholl analysis) in neuronal cultures (WT and Y433F^+/−); format: cell-based, mouse
Summary of the method: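 Some cultures were pretreated 10 min with TrkB.FC (200 ng ml^−1) or M100907 (100 nM), which stayed in the medium alongside cumulative psychedelic doses. Sholl analysis counted dendritic intersections every 5 μm from the soma.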

[2] = system: spine density of neuronal cultures; assay: Spinogenesis in mature neuronal cultures (WT and Y433F^+/−); format: cell-based, mouse; design: 6d: Mean (spinogenesis, spine density) / 6e: Mean (spinogenesis, spine density): unit not given here
Protocol: Spinogenesis experiments were performed similarly to previous studies[12],[13] with modifications. […] In a separate set of experiments to study the effects of extracellular BDNF and 5-HT2A activation, cultures were also pretreated for 10 min with TrkB.FC (200 ng ml^−1) or M100907 (100 nM), respectively. TrkB.FC and M100907 remained in the medium for the rest of the experiment. Twenty-four hours later, coverslips were fixed with 4% PFA, washed with PBS, incubated with blocking buffer (0.1% Triton X-100, 0.05% Tween-20, 10% normal donkey serum, 1% BSA and 0.1% gelatin in PBS) for 1 h at room temperature and then overnight with rabbit anti-MAP2 (Invitrogen, PA5-17646; 1:100) primary antibody at 4 °C. After washing with PBS, coverslips were incubated with CF568-conjugated donkey anti-rabbit (Biotium, 20098; 1:500) for 1 h at room temperature. Another round of PBS washes was followed by incubation with Alexa Fluor 647-conjugated phalloidin (Invitrogen, A22287; 1:40) overnight at 4 °C. Next, coverslips were briefly washed in phosphate buffer (PB) and mounted on slides with ProLong Glass Antifade Mountant (Invitrogen, P36982). We used a Zeiss LSM 880 confocal microscope with an AiryScan GaAsP detector equipped with a PlanApochromat 63×/1.4 NA objective. We used the BP 495–550 + LP 570 AiryScan filter and Zen Black in super-resolution mode for image acquisition. Pinhole size was adapted accordingly, and frame size was set to optimal. Sensors were set to continuous adjustment across the imaging sessions to ensure optimal sensor alignment and signal detection. Raw data were processed into AiryScan images with the autofilter mode on using Zen Blue. Finally, image analysis was performed in ImageJ by experimenters blinded for treatment and genotype. Spines were quantified in 15-µm-long dendrite sections.

[3] = ext fig 1f, competition curve, n=5
[4] = TrkB.FC 200 ng ml^−1 or M100907 100 nM
[5] = Y433F+/-:vehicle minus Y433F+/-:treatment

T1 sequence (Q63604 32-821): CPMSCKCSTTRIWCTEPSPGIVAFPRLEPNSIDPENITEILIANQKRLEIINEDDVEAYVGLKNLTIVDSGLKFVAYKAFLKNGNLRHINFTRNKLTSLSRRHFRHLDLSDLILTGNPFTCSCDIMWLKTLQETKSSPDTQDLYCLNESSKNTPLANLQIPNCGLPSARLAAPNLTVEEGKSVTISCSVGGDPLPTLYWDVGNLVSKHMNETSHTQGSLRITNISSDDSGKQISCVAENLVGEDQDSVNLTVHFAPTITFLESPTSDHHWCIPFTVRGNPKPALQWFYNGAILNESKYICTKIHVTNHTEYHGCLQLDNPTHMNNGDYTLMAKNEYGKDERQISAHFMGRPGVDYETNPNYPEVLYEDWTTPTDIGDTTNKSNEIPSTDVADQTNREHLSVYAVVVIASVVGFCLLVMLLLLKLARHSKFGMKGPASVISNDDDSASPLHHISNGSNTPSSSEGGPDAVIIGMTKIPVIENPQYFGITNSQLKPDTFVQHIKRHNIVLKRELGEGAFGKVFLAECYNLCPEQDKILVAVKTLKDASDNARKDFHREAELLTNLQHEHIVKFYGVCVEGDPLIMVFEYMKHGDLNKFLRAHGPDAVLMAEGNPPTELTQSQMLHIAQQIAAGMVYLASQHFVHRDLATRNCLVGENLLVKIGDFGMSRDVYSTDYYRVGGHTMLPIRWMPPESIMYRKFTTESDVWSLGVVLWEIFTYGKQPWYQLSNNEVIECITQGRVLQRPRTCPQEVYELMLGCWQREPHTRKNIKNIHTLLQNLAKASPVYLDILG

## COc1cccc([C@H](O)C2CCN(CCc3ccc(F)cc3)CC2)c1OC [M100907]
TrkB; 1 nM to 10 µM of drug
  displacement of ^3H-LSD from TrkB: fail to displace LSD binding to TrkB
TrkB; ext fig 1f
  Fit status, specific binding with Hill slope: Ambiguous
TrkB; [3]
  Bmax (specific binding with Hill slope, best-fit): 94.18
  h (Hill slope, best-fit): ~ 1.901
[1]; [4]
  effect of pretreatment on LSD effects on dendritogenesis: not M100907 prevented LSD effects on dendritogenesis
[1]; fig 6i, Bonferroni's multiple comparisons test
  dendritic arbor complexity, Mean Diff. (Vehicle:vehicle vs. group): -9.087
[1]; fig 6i, treatment:pretreatment groups, Vehicle:vehicle mean 69.72
  dendritic arbor complexity, group mean (Mean 2): 78.81
[1]; fig 6j, distance from soma 10 µm
  Sholl analysis, Mean at distance from soma: 6.619
[1]; fig 6j, distance from soma 15 µm
  Sholl analysis, Mean at distance from soma: 6.476
[1]; fig 6j, distance from soma 20 µm
  Sholl analysis, Mean at distance from soma: 6.048
[1]; fig 6j, distance from soma 25 µm
  Sholl analysis, Mean at distance from soma: 6.333
[1]; fig 6j, distance from soma 30 µm
  Sholl analysis, Mean at distance from soma: 5.286
[1]; fig 6j, distance from soma 35 µm
  Sholl analysis, Mean at distance from soma: 4.524
[1]; fig 6j, distance from soma 40 µm
  Sholl analysis, Mean at distance from soma: 4.619
[1]; fig 6j, distance from soma 45 µm
  Sholl analysis, Mean at distance from soma: 3.714
[1]; fig 6j, distance from soma 50 µm
  Sholl analysis, Mean at distance from soma: 3.667
[1]; fig 6j, distance from soma 55 µm
  Sholl analysis, Mean at distance from soma: 3.571
[1]; fig 6j, distance from soma 60 µm
  Sholl analysis, Mean at distance from soma: 3.381
[1]; fig 6j, distance from soma 65 µm
  Sholl analysis, Mean at distance from soma: 3.238
[1]; fig 6j, distance from soma 70 µm
  Sholl analysis, Mean at distance from soma: 2.905
[1]; fig 6j, distance from soma 75 µm
  Sholl analysis, Mean at distance from soma: 2.857
[1]; fig 6j, distance from soma 80 µm
  Sholl analysis, Mean at distance from soma: 3.429
[1]; fig 6j, distance from soma 85 µm
  Sholl analysis, Mean at distance from soma: 3.429
[1]; fig 6j, distance from soma 90 µm
  Sholl analysis, Mean at distance from soma: 3.381
[1]; fig 6j, distance from soma 95 µm
  Sholl analysis, Mean at distance from soma: 2.619
[1]; fig 6j, distance from soma 100 µm
  Sholl analysis, Mean at distance from soma: 2.714
[2]; [4]
  effect of pretreatment on spinogenic effect of LSD: not M100907 prevented the spinogenic effect of LSD
[2]; substance alone (with vehicle)
  6e: Mean Diff. (Vehicle:Vehicle vs. treatment), Bonferroni's multiple comparisons test: -2.8
[2]; substance alone (with vehicle), Vehicle:Vehicle mean 7.05
  6e: Mean (spinogenesis, spine density): 9.85

## CN(C)CCc1c[nH]c2cccc(O)c12 [PSI, psilocin]
TrkB
  Ki: 6.73 ± 3.05 nM
TrkB; competition with ^3H-LSD
  Bmax (best-fit, 1b): 100.9
  h (best-fit, 1b): -0.492
TrkB; higher than other antidepressants
  affinity to TrkB relative to other antidepressants (fluoxetine, ketamine): 1,000 fold
[1]; WT neurons, vehicle mean 32.96
  6g: Mean (dendritogenesis, Sholl analysis): 62.5
[1]; WT:vehicle minus WT:treatment
  6g: Mean Diff. (vehicle vs. treatment), Bonferroni's multiple comparisons test: -29.54
[1]; Y433F+/- neurons, vehicle mean 44.44
  6g: Mean (dendritogenesis, Sholl analysis): 31.05
[1]; [5]
  6g: Mean Diff. (vehicle vs. treatment), Bonferroni's multiple comparisons test: 13.39
[1]; cultures from WT mice
  dendritic arbor complexity: enhance dendritic arbor complexity
[1]; cultures from Y433F^+/− mice
  dendritic arbor complexity: not Y433F^+/− mice
[1]; fig 6h, distance from soma 25 µm
  Sholl analysis, Mean at distance from soma: 3.05
[1]; fig 6h, distance from soma 30 µm
  Sholl analysis, Mean at distance from soma: 2.75
[1]; fig 6h, distance from soma 35 µm
  Sholl analysis, Mean at distance from soma: 2.15
[1]; fig 6h, distance from soma 40 µm
  Sholl analysis, Mean at distance from soma: 1.55
[1]; fig 6h, distance from soma 45 µm
  Sholl analysis, Mean at distance from soma: 1.35
[1]; fig 6h, distance from soma 50 µm
  Sholl analysis, Mean at distance from soma: 1.3
[1]; fig 6h, distance from soma 55 µm
  Sholl analysis, Mean at distance from soma: 0.95
[1]; fig 6h, distance from soma 60 µm
  Sholl analysis, Mean at distance from soma: 0.8
[1]; fig 6h, distance from soma 65 µm
  Sholl analysis, Mean at distance from soma: 0.75
[1]; fig 6h, distance from soma 70 µm
  Sholl analysis, Mean at distance from soma: 0.7
[1]; fig 6h, distance from soma 75 µm
  Sholl analysis, Mean at distance from soma: 0.55
[1]; fig 6h, distance from soma 80 µm
  Sholl analysis, Mean at distance from soma: 0.45
[1]; fig 6h, distance from soma 85 µm
  Sholl analysis, Mean at distance from soma: 0.45
[1]; fig 6h, distance from soma 90 µm
  Sholl analysis, Mean at distance from soma: 0.4
[1]; fig 6h, distance from soma 95 µm
  Sholl analysis, Mean at distance from soma: 0.65
[1]; fig 6h, distance from soma 100 µm
  Sholl analysis, Mean at distance from soma: 0.55
[1]; first 6h table (N as WT), distance from soma 10 µm
  6h: Mean (Sholl analysis): 6
[1]; first 6h table (N as WT), distance from soma 15 µm
  6h: Mean (Sholl analysis): 7.15
[1]; first 6h table (N as WT), distance from soma 20 µm
  6h: Mean (Sholl analysis): 7.85
[1]; first 6h table (N as WT), distance from soma 25 µm
  6h: Mean (Sholl analysis): 6.65
[1]; first 6h table (N as WT), distance from soma 30 µm
  6h: Mean (Sholl analysis): 5.65
[1]; first 6h table (N as WT), distance from soma 35 µm
  6h: Mean (Sholl analysis): 4.5
[1]; first 6h table (N as WT), distance from soma 40 µm
  6h: Mean (Sholl analysis): 3.6
[1]; first 6h table (N as WT), distance from soma 45 µm
  6h: Mean (Sholl analysis): 2.75
[1]; first 6h table (N as WT), distance from soma 50 µm
  6h: Mean (Sholl analysis): 2.6
[1]; first 6h table (N as WT), distance from soma 55 µm
  6h: Mean (Sholl analysis): 2.5
[1]; first 6h table (N as WT), distance from soma 60 µm
  6h: Mean (Sholl analysis): 2.35
[1]; first 6h table (N as WT), distance from soma 65 µm
  6h: Mean (Sholl analysis): 1.75
[1]; first 6h table (N as WT), distance from soma 70 µm
  6h: Mean (Sholl analysis): 1.7
[1]; first 6h table (N as WT), distance from soma 75 µm
  6h: Mean (Sholl analysis): 1.35
[1]; first 6h table (N as WT), distance from soma 80 µm
  6h: Mean (Sholl analysis): 1.15
[1]; first 6h table (N as WT), distance from soma 85 µm
  6h: Mean (Sholl analysis): 1.1
[1]; first 6h table (N as WT), distance from soma 90 µm
  6h: Mean (Sholl analysis): 1.3
[1]; first 6h table (N as WT), distance from soma 95 µm
  6h: Mean (Sholl analysis): 1.05
[1]; first 6h table (N as WT), distance from soma 100 µm
  6h: Mean (Sholl analysis): 1.5
[1]; second 6h table (N as Y433F), distance from soma 10 µm
  6h: Mean (Sholl analysis): 4.8
[1]; second 6h table (N as Y433F), distance from soma 15 µm
  6h: Mean (Sholl analysis): 4.05
[1]; second 6h table (N as Y433F), distance from soma 20 µm
  6h: Mean (Sholl analysis): 3.8
[2]; WT neurons, vehicle mean 5.7
  6d: Mean (spinogenesis, spine density): 10.5
[2]; WT:vehicle minus WT:treatment
  6d: Mean Diff. (vehicle vs. treatment), Bonferroni's multiple comparisons test: -4.8
[2]; Y433F+/- neurons, vehicle mean 6.55
  6d: Mean (spinogenesis, spine density): 7
[2]; [5]
  6d: Mean Diff. (vehicle vs. treatment), Bonferroni's multiple comparisons test: -0.45
[2]; cultures from WT mice, 24 h, 100 nM
  spine density: increase spine density

Reference: paper PMC10244169, “Psychedelics promote plasticity by directly binding to BDNF receptor TrkB” (Nature Neuroscience, 2023)
